Where two headings read alike, the source gives them in different places.
Target: human μ-opiate receptor (Homo sapiens, UniProt P35372)
Assay: Affinity for the human μ-opiate receptor ([3H]-naloxone displacement, SPA, CHO-K1 membrane preparation)
Assay type: binding
Conditions: for Ki: read-out: μ-Opioid receptor, Ki; for inhibition at 1 µM: read-out: μ-Opioid receptor, % inhibition [1 μM]
[1] = 1 μM test substance, inhibition of specific [3H]-naloxone binding

human μ-opiate receptor, sequence (P35372 whole entry): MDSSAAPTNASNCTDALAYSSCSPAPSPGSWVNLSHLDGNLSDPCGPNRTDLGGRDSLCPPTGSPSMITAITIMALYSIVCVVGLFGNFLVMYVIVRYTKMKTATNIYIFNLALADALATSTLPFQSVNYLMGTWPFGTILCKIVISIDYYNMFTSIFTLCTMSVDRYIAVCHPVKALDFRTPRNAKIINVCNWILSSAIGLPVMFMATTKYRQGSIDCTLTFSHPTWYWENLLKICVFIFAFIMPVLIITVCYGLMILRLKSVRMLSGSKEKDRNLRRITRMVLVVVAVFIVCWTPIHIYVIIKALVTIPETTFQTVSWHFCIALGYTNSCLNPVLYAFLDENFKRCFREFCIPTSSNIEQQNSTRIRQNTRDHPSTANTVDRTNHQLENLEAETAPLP

## CN(C)C(CCc1ccccc1)C1CCC(NC(=O)c2ccc(F)c(C(F)(F)F)c2)CC1 (single isomer, unassigned) [compound 227, N-[4-(1-dimethylamino-3-phenyl-propyl)-cyclohexyl]-4-fluoro-3-trifluoromethyl-benzamide]
1 µM
  μ-Opioid receptor, % inhibition [1 μM]: 87%
  Ki: 58 nM

## COc1c(C(=O)NCC2CCC(C(c3cccc(F)c3)N(C)C)CC2)csc1Cl (stereo not shown) [compound 303, 5-chloro-4-methoxy-thiophene-3-carboxylic acid {4-[dimethylamino-(3-fluoro-phenyl)-methyl]-cyclohexylmethyl}-amide]
  inhibition at 1 µM: 99%
  Ki: 19 nM

## COc1cc(C(=O)NC2CCC(C(c3cccs3)N(C)C)CC2)cc(OC)c1OC (stereo not shown) [compound 212, N-[4-(dimethylamino-thiophen-2-yl-methyl)-cyclohexyl]-3,4,5-trimethoxy-benzamide]
  inhibition at 1 µM: 91%
  Ki: 19 nM

## COc1cccc(C(=O)NCC2CCC(C(c3ccc(Cl)cc3)N(C)C)CC2)c1 (stereo not shown) [compound 393, N-{4-[(4-chloro-phenyl)-dimethylamino-methyl]-cyclohexylmethyl}-3-methoxy-benzamide]
  inhibition at 1 µM: 80%
  Ki: 44 nM

## CN(C)C(c1ccccc1)C1CCC(CCNC(=O)c2csc(-c3ccc4c(c3)CCO4)n2)CC1 (stereo not shown) [compound 468, 2-(2,3-dihydro-benzofuran-5-yl)-thiazole-4-carboxylic acid {2-[4-(dimethylamino-phenyl-methyl)-cyclohexyl]-ethyl}-amide]
  inhibition at 1 µM: 83%
  Ki: 160 nM

## Cc1nc(-c2ccc3c(c2)CCO3)sc1C(=O)NC1CCC(C(c2cccs2)N(C)C)CC1 (stereo not shown) [compound 283, 2-(2,3-dihydro-benzofuran-5-yl)-4-methyl-thiazole-5-carboxylic acid [4-(dimethylamino-thiophen-2-yl-methyl)-cyclohexyl]-amide]
  inhibition at 1 µM: 72%
  Ki: 150 nM

## Cc1ccccc1C(=O)NCCC1CCC(C(c2ccccc2)N(C)C)CC1 (single isomer, unassigned) [compound 418, N-{2-[4-(dimethylamino-phenyl-methyl)-cyclohexyl]-ethyl}-2-methyl-benzamide]
1 µM
  μ-Opioid receptor, % inhibition [1 μM]: 92%
  Ki: 43 nM

## CN(C)C(c1cccs1)C1CCC(CCNC(=O)c2ccccc2Cl)CC1 (stereo not shown) [compound 425, 2-chloro-N-{2-[4-(dimethylamino-thiophen-2-yl-methyl)-cyclohexyl]-ethyl}-benzamide]
  inhibition at 1 µM: 94%
  Ki: 6 nM

## CN(C)C(c1cccc(F)c1)C1CCC(NC(=O)c2csc(-c3ccccc3)n2)CC1 (stereo not shown) [compound 264, 2-phenyl-thiazole-4-carboxylic acid {4-[dimethylamino-(3-fluoro-phenyl)-methyl]-cyclohexyl}-amide]
  inhibition at 1 µM: 78%
  Ki: 110 nM

## CC(Oc1ccccc1)C(=O)NCC1CCC(C(c2cccs2)N(C)C)CC1 (stereo not shown) [compound 304, N-[4-(dimethylamino-thiophen-2-yl-methyl)-cyclohexylmethyl]-2-phenoxy-propionamide]
  inhibition at 1 µM: 99%
  Ki: 15 nM

## CN(C)C(c1ccccc1)C1CCC(CNC(=O)c2csc3ccccc23)CC1 (stereo not shown) [compound 292, benzo[b]thiophene-3-carboxylic acid [4-(dimethylamino-phenyl-methyl)-cyclohexylmethyl]-amide]
  inhibition at 1 µM: 102%
  Ki: 1.3 nM

## CN(C)C(c1cccc(F)c1)C1CCC(CCNC(=O)c2cc(F)c(Cl)cc2Cl)CC1 (single isomer, unassigned) [compound 438, 2,4-dichloro-N-(2-{4-[dimethylamino-(3-fluoro-phenyl)-methyl]-cyclohexyl}-ethyl)-5-fluoro-benzamide]
  inhibition at 1 µM: 87%
  Ki: 100 nM

## CN(C)C(c1cccs1)C1CCC(NC(=O)c2cccnc2Oc2ccc(Cl)cc2)CC1 (stereo not shown) [compound 257, 2-(4-chloro-phenoxy)-N-[4-(dimethylamino-thiophen-2-yl-methyl)-cyclohexyl]-nicotinamide]
  inhibition at 1 µM: 79%
  Ki: 81 nM

## CN(C)C(c1ccccc1)C1CCC(NC(=O)c2cncc(Br)c2)CC1 (stereo not shown) [compound 259, 5-bromo-N-[4-(dimethylamino-phenyl-methyl)-cyclohexyl]-nicotinamide]
1 µM
  μ-Opioid receptor, % inhibition [1 μM]: 79%
  Ki: 62 nM

## COc1c(C(=O)NC2CCC(C(c3ccccc3)N(C)C)CC2)csc1Cl (stereo not shown) [compound 188, 5-chloro-4-methoxy-thiophene-3-carboxylic acid [4-(dimethylamino-phenyl-methyl)-cyclohexyl]-amide]
  inhibition at 1 µM: 100%
  Ki: 5.2 nM

## CN(C)C(c1ccccc1)C1CCC(CNC(=O)c2cccc(Cl)c2)CC1 (stereo not shown) [compound 331, 3-chloro-N-[4-(dimethylamino-phenyl-methyl)-cyclohexylmethyl]-benzamide]
  inhibition at 1 µM: 93%
  Ki: 11 nM

## CCCCCC1(O)CCC(C(c2ccc(Cl)cc2)N(C)C)CC1 (stereo not shown) [compound 169, 4-[(4-chloro-phenyl)-dimethylamino-methyl]-1-pentyl-cyclohexanol]
[1]
  inhibition at 1 µM: 71%

## COc1cccc(CC2(O)CCC(C(c3ccc(Cl)cc3)N(C)C)CC2)c1 (stereo not shown) [compound 173, 4-[(4-chloro-phenyl)-dimethylamino-methyl]-1-(3-methoxy-benzyl)-cyclohexanol]
[1]
  inhibition at 1 µM: 84%

## Cc1nc(-c2ccccc2)sc1C(=O)NC1CCC(C(c2cccc(F)c2)N(C)C)CC1 (stereo not shown) [compound 256, 4-methyl-2-phenyl-thiazole-5-carboxylic acid {4-[dimethylamino-(3-fluoro-phenyl)-methyl]-cyclohexyl}-amide]
  inhibition at 1 µM: 80%
  Ki: 80 nM

## CN(C)C(c1ccccc1)C1CCC(CCNC(=O)c2cc3ccccc3s2)CC1 (stereo not shown) [compound 457, benzo[b]thiophene-2-carboxylic acid {2-[4-(dimethylamino-phenyl-methyl)-cyclohexyl]-ethyl}-amide]
  inhibition at 1 µM: 91%
  Ki: 40 nM

## CCCc1ccc(C(=O)NCCC2CCC(C(c3cccs3)N(C)C)CC2)cc1 (stereo not shown) [compound 443, N-{2-[4-(dimethylamino-thiophen-2-yl-methyl)-cyclohexyl]-ethyl}-4-propyl-benzamide]
  inhibition at 1 µM: 96%
  Ki: 40 nM

## CN(C)C(c1ccccc1)C1CCC(NC(=O)c2ccc(C(C)(C)C)cc2)CC1 (stereo not shown) [compound 217, 4-tert-butyl-N-[4-(dimethylamino-phenyl-methyl)-cyclohexyl]-benzamide]
  inhibition at 1 µM: 90%
  Ki: 62 nM

## Cc1cc(C2(O)CCC(C(c3ccc(Cl)cc3)N(C)C)CC2)ccc1F (stereo not shown) [compound 160, 4-[(4-chloro-phenyl)-dimethylamino-methyl]-1-(4-fluoro-3-methyl-phenyl)-cyclohexanol]
[1]
  inhibition at 1 µM: 67%

## CN(C)C(CCc1ccccc1)C1CCC(NC(=O)c2cccc(Br)c2)CC1 (stereo not shown) [compound 277, 3-bromo-N-[4-(1-dimethylamino-3-phenyl-propyl)-cyclohexyl]-benzamide]
  inhibition at 1 µM: 74%
  Ki: 74 nM

## CN(C)C(c1ccccc1)C1CCC(CCNC(=O)c2cccc(Cl)c2)CC1 (single isomer, unassigned) [compound 398, 3-chloro-N-{2-[4-(dimethylamino-phenyl-methyl)-cyclohexyl]-ethyl}-benzamide]
1 µM
  μ-Opioid receptor, % inhibition [1 μM]: 101%
  Ki: 7.4 nM

## CN(C)C(c1ccc(Cl)cc1)C1CCC(CNC(=O)c2csc3ccccc23)CC1 (single isomer, unassigned) [compound 372, benzo[b]thiophene-3-carboxylic acid {4-[(4-chloro-phenyl)-dimethylamino-methyl]-cyclohexylmethyl}-amide]
1 µM
  μ-Opioid receptor, % inhibition [1 μM]: 84%
  Ki: 33 nM

## Cc1cccc(C(=O)NCC2CCC(C(c3ccccc3)N(C)C)CC2)c1 (stereo not shown) [compound 362, N-[4-(dimethylamino-phenyl-methyl)-cyclohexylmethyl]-3-methyl-benzamide]
  inhibition at 1 µM: 85%
  Ki: 60 nM

## 4-((dimethylamino)(phenyl)methyl)-1-(4-fluoro-3-methylphenyl)cyclohexanol [compound 150]
[1]
  μ-Opioid receptor, % inhibition [1 μM]: 74%

## CC(=O)N(C(C)Cc1c[nH]c2ccccc12)C1CCC(C(c2ccccc2)N(C)C)CC1 (stereo not shown) [compound 178, N-(1-(1H-indol-3-yl)propan-2-yl)-N-(4-((dimethylamino)(phenyl)methyl)-cyclohexyl)acetamide]
  inhibition at 1 µM: 96%
  Ki: 1.2 nM

## CN(C)C(c1cccc(F)c1)C1CCC(NC(=O)c2ccc(F)c(Cl)c2)CC1 (stereo not shown) [compound 269, 3-chloro-N-{4-[dimethylamino-(3-fluoro-phenyl)-methyl]-cyclohexyl}-4-fluoro-benzamide]
  inhibition at 1 µM: 75%
  Ki: 47 nM

## CN(C)C(c1ccccc1)C1CCC(NC(=O)c2csc(-c3ccccc3)n2)CC1 (stereo not shown) [compound 237, 2-phenyl-thiazole-4-carboxylic acid [4-(dimethylamino-phenyl-methyl)-cyclohexyl]-amide]
  inhibition at 1 µM: 83%
  Ki: 48 nM

## COc1ccc(CN(C(C)=O)C2CCC(C(c3ccccc3)N(C)C)CC2)cc1 (stereo not shown) [compound 176, N-(4-((dimethylamino)(phenyl)methyl)cyclohexyl)-N-(4-methoxybenzyl)-acetamide]
  inhibition at 1 µM: 86%
  Ki: 19 nM

## Cc1oc(-c2ccc(Cl)cc2)cc1C(=O)NC1CCC(C(c2cccc(F)c2)N(C)C)CC1 (stereo not shown) [compound 285, 5-(4-chloro-phenyl)-2-methyl-furan-3-carboxylic acid {4-[dimethylamino-(3-fluoro-phenyl)-methyl]-cyclohexyl}-amide]
  inhibition at 1 µM: 71%

## CN(C)C(c1cccs1)C1CCC(NC(=O)c2cccnc2Sc2ccc(Cl)cc2)CC1 (stereo not shown) [compound 218, 2-(4-chloro-phenylsulfanyl)-N-[4-(dimethylamino-thiophen-2-yl-methyl)-cyclohexyl]-nicotinamide]
  inhibition at 1 µM: 89%

## CN(C)C(c1ccc(F)cc1)C1CCC(CCNC(=O)c2cccc(Cl)c2)CC1 (single isomer, unassigned) [compound 422, 3-chloro-N-(2-{4-[dimethylamino-(4-fluoro-phenyl)-methyl]-cyclohexyl}-ethyl)-benzamide]
  inhibition at 1 µM: 83%
  Ki: 35 nM

— patent US8058475B2, “Substituted cyclohexylmethyl compounds” (Gruenenthal GmbH, priority 2005, dated 2011)
